Data: the supplement of paper PMC10733146

Experiments:
Test in all cases: viability relative to DMSO control (fraction); higher = less drug effect (more viable cells)
Conditions in all cases: 48 h
Pralatrexate = compound: C#CCC(Cc1cnc2nc(N)nc(N)c2n1)c1ccc(C(=O)N[C@@H](CCC(=O)O)C(=O)O)cc1 [Pralatrexate]
Method in brief: (§1)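 Viability was quantified by CellTiter-Glo luminescence and related to the median of 16 inner DMSO wells. Before that, primary mononuclear tumour cells, fresh or cryopreserved and Ficoll-isolated from blood or bone marrow or prepared from processed lymph node, were plated at 4 × 10^4 cells per well in 384-well plates containing pre-plated compounds at five concentrations, one well each. Plates were incubated in RPMI-1640 with penicillin/streptomycin, L-glutamine and human serum at 37 °C and 5% CO2 for 48 h.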

Pacritinib = compound: C1=N/C2=N/c3ccc(OCCN4CCCC4)c(c3)COC/C=C/COCc3cccc(c3)C(=C1)N2 [Pacritinib]
Method in brief: as §1

Idarubicin = compound: CC(=O)[C@]1(O)Cc2c(O)c3c(c(O)c2[C@@H](O[C@H]2C[C@H](N)[C@H](O)[C@H](C)O2)C1)C(=O)c1ccccc1C3=O [Idarubicin]
Method in brief: as §1

Carfilzomib = compound: CC(C)C[C@H](NC(=O)[C@H](CCc1ccccc1)NC(=O)CN1CCOCC1)C(=O)N[C@@H](Cc1ccccc1)C(=O)N[C@@H](CC(C)C)C(=O)[C@@]1(C)CO1 [Carfilzomib]
Method in brief: as §1

ERK5-IN-1 = compound: CCOc1cc(C(=O)N2CCC(N3CCN(C)CC3)CC2)ccc1Nc1ncc2c(n1)N(C1CCCC1)c1ccccc1C(=O)N2C [ERK5-IN-1]
Method in brief: as §1

BI6727 = compound: CC[C@@H]1C(=O)N(C)c2cnc(Nc3ccc(C(=O)N[C@H]4CC[C@H](N5CCN(CC6CC6)CC5)CC4)cc3OC)nc2N1C(C)C [BI6727]
Method in brief: as §1

Birinapant = compound: CC[C@H](NC(=O)[C@H](C)NC)C(=O)N1C[C@@H](O)C[C@H]1Cc1c(-c2[nH]c3cc(F)ccc3c2C[C@@H]2C[C@H](O)CN2C(=O)[C@H](CC)NC(=O)[C@H](C)NC)[nH]c2cc(F)ccc12 [Birinapant]
Method in brief: as §1

Ribociclib = compound: CN(C)C(=O)c1cc2cnc(Nc3ccc(N4CCNCC4)cn3)nc2n1C1CCCC1 [Ribociclib]
Method in brief: as §1

Rigosertib = compound: COc1cc(OC)c(/C=C/S(=O)(=O)Cc2ccc(OC)c(NCC(=O)O)c2)c(OC)c1 [Rigosertib]
Method in brief: as §1

BEZ235 = compound: Cn1c(=O)n(-c2ccc(C(C)(C)C#N)cc2)c2c3cc(-c4cnc5ccccc5c4)ccc3ncc21 [BEZ235]
Method in brief: as §1

Iniparib = compound: NC(=O)c1ccc(I)c([N+](=O)[O-])c1 [Iniparib]
Method in brief: as §1

Cladribine = compound: Nc1nc(Cl)nc2c1ncn2[C@H]1C[C@H](O)[C@@H](CO)O1 [Cladribine]
Method in brief: as §1

8-Azaguanin = compound: Nc1nc2n[nH]nc2c(=O)[nH]1 [8-Azaguanin]
Method in brief: as §1

Pentostatin = compound: OC[C@H]1O[C@@H](n2cnc3c2N=CNC[C@H]3O)C[C@@H]1O [Pentostatin]
Method in brief: as §1

[1] = compound: OCc1ccc(-c2ccc(-c3ccc(CO)s3)o2)s1
Method in brief: as §1

In the case of primary MCL patient cells (S068), the viability (Pralatrexate; 0.024 µM) is reported as 1.03, the viability (Pralatrexate; 0.12 µM) is reported as 1.01 and the viability (Pralatrexate; 0.6 µM) is reported as 1.03. For the same test system, the viability (Pralatrexate; 3 µM) was 0.965, the viability (Pralatrexate; 15 µM) was 0.99 and the viability (Pacritinib; 0.024 µM) was 0.959. It also gave a viability (Pacritinib; 0.12 µM) of 0.951, a viability (Pacritinib; 0.6 µM) of 0.968 and a viability (Pacritinib; 3 µM) of 0.717. It also gave a viability (Pacritinib; 15 µM) of 0.0216, a viability (Idarubicin; 0.024 µM) of 0.835 and a viability (Idarubicin; 0.12 µM) of 0.457. The viability (Idarubicin; 0.6 µM) was 0.154, the viability (Idarubicin; 3 µM) was 0.017 and the viability (Idarubicin; 15 µM) was 0.021. The viability (Carfilzomib; 0.00016 µM) was 0.897, the viability (Carfilzomib; 0.0008 µM) was 0.257 and the viability (Carfilzomib; 0.004 µM) was 0.0483. For the same test system, the viability (Carfilzomib; 0.02 µM) was 0.0291, the viability (Carfilzomib; 0.1 µM) was 0.0301 and the viability (ERK5-IN-1; 0.024 µM) was 0.883. For the same test system, the viability (ERK5-IN-1; 0.12 µM) was 0.815, the viability (ERK5-IN-1; 0.6 µM) was 0.478 and the viability (ERK5-IN-1; 3 µM) was 0.269. The viability (ERK5-IN-1; 15 µM) was 0.181, the viability (BI6727; 0.024 µM) was 0.881 and the viability (BI6727; 0.12 µM) was 0.771. It also gave a viability (BI6727; 0.6 µM) of 0.403, a viability (BI6727; 3 µM) of 0.219 and a viability (BI6727; 15 µM) of 0.13. The viability (Birinapant; 0.0008 µM) was 0.868, the viability (Birinapant; 0.004 µM) was 0.758 and the viability (Birinapant; 0.02 µM) was 0.663. For the same test system, the viability (Birinapant; 0.1 µM) was 0.55, the viability (Birinapant; 0.5 µM) was 0.489 and the viability (Ribociclib; 0.024 µM) was 0.848. It also gave a viability (Ribociclib; 0.12 µM) of 0.868, a viability (Ribociclib; 0.6 µM) of 0.645 and a viability (Ribociclib; 3 µM) of 0.487. The viability (Ribociclib; 15 µM) was 0.362, the viability (Rigosertib; 0.008 µM) was 0.94 and the viability (Rigosertib; 0.04 µM) was 0.934. The viability (Rigosertib; 0.2 µM) was 0.846, the viability (Rigosertib; 1 µM) was 0.835 and the viability (Rigosertib; 5 µM) was 0.37. The viability (BEZ235; 0.024 µM) was 1.1, the viability (BEZ235; 0.12 µM) was 1.25 and the viability (BEZ235; 0.6 µM) was 1.16. For the same test system, the viability (BEZ235; 3 µM) was 1.45, the viability (BEZ235; 15 µM) was 0.982 and the viability (Iniparib; 0.024 µM) was 1.14. For the same test system, the viability (Iniparib; 0.12 µM) was 1.1, the viability (Iniparib; 0.6 µM) was 1.01 and the viability (Iniparib; 3 µM) was 1.04. It also gave a viability (Iniparib; 15 µM) of 0.984, a viability (Cladribine; 0.024 µM) of 0.741 and a viability (Cladribine; 0.12 µM) of 0.376. For the same test system, the viability (Cladribine; 0.6 µM) was 0.233, the viability (Cladribine; 3 µM) was 0.161 and the viability (Cladribine; 15 µM) was 0.175. It also gave a viability (8-Azaguanin; 0.032 µM) of 0.911, a viability (8-Azaguanin; 0.16 µM) of 1.01 and a viability (8-Azaguanin; 0.8 µM) of 0.725. For the same test system, the viability (8-Azaguanin; 4 µM) was 0.486, the viability (8-Azaguanin; 20 µM) was 0.346 and the viability (Pentostatin; 0.03 µM) was 0.654. The viability (Pentostatin; 0.15 µM) was 0.644, the viability (Pentostatin; 0.75 µM) was 0.736 and the viability (Pentostatin; 3.75 µM) was 0.526. For the same test system, the viability (Pentostatin; 18.76 µM) was 0.448, the viability ([1]; 0.024 µM) was 0.705 and the viability ([1]; 0.12 µM) was 0.693. It also gave a viability ([1]; 0.6 µM) of 0.701, a viability ([1]; 3 µM) of 0.743 and a viability ([1]; 15 µM) of 0.348.
primary T-PLL patient cells (S008) showed a viability (Pralatrexate; 0.024 µM) of 1.09, a viability (Pralatrexate; 0.12 µM) of 0.978 and a viability (Pralatrexate; 0.6 µM) of 0.965. The viability (Pralatrexate; 3 µM) was 0.982, the viability (Pralatrexate; 15 µM) was 0.971 and the viability (Pacritinib; 0.024 µM) was 1.02. It also gave a viability (Pacritinib; 0.12 µM) of 1.11, a viability (Pacritinib; 0.6 µM) of 1.03 and a viability (Pacritinib; 3 µM) of 0.86. It also gave a viability (Pacritinib; 15 µM) of 0.0403, a viability (Idarubicin; 0.024 µM) of 0.918 and a viability (Idarubicin; 0.12 µM) of 0.591. It also gave a viability (Idarubicin; 0.6 µM) of 0.128, a viability (Idarubicin; 3 µM) of 0.0427 and a viability (Idarubicin; 15 µM) of 0.03. For the same test system, the viability (Carfilzomib; 0.00016 µM) was 0.997, the viability (Carfilzomib; 0.0008 µM) was 0.434 and the viability (Carfilzomib; 0.004 µM) was 0.0161. The viability (Carfilzomib; 0.02 µM) was 0.0168, the viability (Carfilzomib; 0.1 µM) was 0.0205 and the viability (ERK5-IN-1; 0.024 µM) was 0.932. The viability (ERK5-IN-1; 0.12 µM) was 0.957, the viability (ERK5-IN-1; 0.6 µM) was 0.985 and the viability (ERK5-IN-1; 3 µM) was 0.958. It also gave a viability (ERK5-IN-1; 15 µM) of 0.754, a viability (BI6727; 0.024 µM) of 0.979 and a viability (BI6727; 0.12 µM) of 0.921. It also gave a viability (BI6727; 0.6 µM) of 0.934, a viability (BI6727; 3 µM) of 0.899 and a viability (BI6727; 15 µM) of 0.746. The viability (Birinapant; 0.0008 µM) was 0.887, the viability (Birinapant; 0.004 µM) was 0.915 and the viability (Birinapant; 0.02 µM) was 0.925. The viability (Birinapant; 0.1 µM) was 0.897, the viability (Birinapant; 0.5 µM) was 0.91 and the viability (Ribociclib; 0.024 µM) was 1.04. The viability (Ribociclib; 0.12 µM) was 1.03, the viability (Ribociclib; 0.6 µM) was 1.05 and the viability (Ribociclib; 3 µM) was 1.01. The viability (Ribociclib; 15 µM) was 0.902, the viability (Rigosertib; 0.008 µM) was 1.07 and the viability (Rigosertib; 0.04 µM) was 1.02. It also gave a viability (Rigosertib; 0.2 µM) of 1.07, a viability (Rigosertib; 1 µM) of 0.991 and a viability (Rigosertib; 5 µM) of 0.98. It also gave a viability (BEZ235; 0.024 µM) of 0.969, a viability (BEZ235; 0.12 µM) of 0.967 and a viability (BEZ235; 0.6 µM) of 0.927. The viability (BEZ235; 3 µM) was 0.941, the viability (BEZ235; 15 µM) was 0.308 and the viability (Iniparib; 0.024 µM) was 1.11. For the same test system, the viability (Iniparib; 0.12 µM) was 0.994, the viability (Iniparib; 0.6 µM) was 0.915 and the viability (Iniparib; 3 µM) was 0.962. For the same test system, the viability (Iniparib; 15 µM) was 0.94, the viability (Cladribine; 0.024 µM) was 0.925 and the viability (Cladribine; 0.12 µM) was 0.774. The viability (Cladribine; 0.6 µM) was 0.489, the viability (Cladribine; 3 µM) was 0.407 and the viability (Cladribine; 15 µM) was 0.363. For the same test system, the viability (8-Azaguanin; 0.032 µM) was 0.898, the viability (8-Azaguanin; 0.16 µM) was 0.991 and the viability (8-Azaguanin; 0.8 µM) was 0.91. The viability (8-Azaguanin; 4 µM) was 0.858, the viability (8-Azaguanin; 20 µM) was 0.712 and the viability (Pentostatin; 0.03 µM) was 1.04. The viability (Pentostatin; 0.15 µM) was 0.989, the viability (Pentostatin; 0.75 µM) was 1 and the viability (Pentostatin; 3.75 µM) was 0.892. It also gave a viability (Pentostatin; 18.76 µM) of 0.917, a viability ([1]; 0.024 µM) of 0.894 and a viability ([1]; 0.12 µM) of 0.961. It also gave a viability ([1]; 0.6 µM) of 0.855, a viability ([1]; 3 µM) of 0.776 and a viability ([1]; 15 µM) of 0.246.
